Test results taken from PubChem BioAssay AID248 (DTP/NCI, 2004).
“And” between values parts separate entries of the source, which are not always exact repeats. Equal entries are not always repeated. Inconclusive results and toxic doses are left out.

System: L1210 leukemia ip in BDF1 mice, survival T/C
Test: NCI In Vivo Anticancer Drug Screen. Data for tumor model L1210 Leukemia (intraperitoneal) in B6D2F1 (BDF1) mice
Settings: endpoint: mean survival time, higher = longer survival
Summary of the method: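 Transplanted-tumor mice were given test agent; controls received vehicle only. Survival readings from the two groups were divided (treated over control).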

[1] = dose: 100.0 mg/kg/injection, schedule: Q04DX003 (ip), vehicle: saline
[2] = dose: 200.0 mg/kg/injection, schedule: Q04DX003 (ip), vehicle: saline
[3] = dose: 400.0 mg/kg/injection, schedule: Q04DX003 (ip), vehicle: saline
[4] = dose: 100.0 mg/kg/injection, schedule: Q01DX001 (ip), vehicle: carboxymethylcellulose (CMC)
[5] = dose: 200.0 mg/kg/injection, schedule: Q01DX001 (ip), vehicle: carboxymethylcellulose (CMC)
[6] = dose: 400.0 mg/kg/injection, schedule: Q01DX001 (ip), vehicle: carboxymethylcellulose (CMC)
[7] = dose: 5.0 mg/kg/injection, schedule: Q01DX001 (ip), vehicle: saline
[8] = dose: 10.0 mg/kg/injection, schedule: Q01DX001 (ip), vehicle: saline
[9] = dose: 20.0 mg/kg/injection, schedule: Q01DX001 (ip), vehicle: saline
[10] = dose: 40.0 mg/kg/injection, schedule: Q01DX001 (ip), vehicle: saline
[11] = dose: 25.0 mg/kg/injection, schedule: Q01DX009 (ip), vehicle: saline
[12] = dose: 50.0 mg/kg/injection, schedule: Q01DX009 (ip), vehicle: saline
[13] = dose: 100.0 mg/kg/injection, schedule: Q01DX009 (ip), vehicle: saline
[14] = dose: 50.0 mg/kg/injection, schedule: Q01DX001 (ip), vehicle: carboxymethylcellulose (CMC)
[15] = dose: 100.0 mg/kg/injection, schedule: Q01DX001 (ip), vehicle: saline
[16] = dose: 100.0 mg/kg/injection, schedule: Q01DX009 (ip), vehicle: saline with Tween-80

Compound: Cc1ccc(CC(C)(O)CC(C)(O)Cc2ccc(C)cc2)cc1 (stereo not given)
- T/C [1]: 100 % of control
- T/C [2]: 93 % of control
- T/C [3]: 93 % of control

Compound: CC(=O)OC1CC2CC(C1)C(C#N)C(=O)NC(=O)C2C#N (stereo not given)
- T/C [4]: 102 % of control
- T/C [5]: 96 % of control
- T/C [6]: 92 % of control

Compound: COc1n[n+]([O-])c(Cl)c(/C=C\c2ccccc2)c1[N+](=O)[O-]
- T/C (dose: 75.0 mg/kg/injection, schedule: Q04DX002 (ip), vehicle: Klucel (hydroxypropylcellulose) (HPC)): 93 % of control
- T/C (dose: 150.0 mg/kg/injection, schedule: Q04DX002 (ip), vehicle: Klucel (hydroxypropylcellulose) (HPC)): 101 % of control
- T/C (dose: 300.0 mg/kg/injection, schedule: Q04DX002 (ip), vehicle: Klucel (hydroxypropylcellulose) (HPC)): 101 % of control

Compound: CCC[CH2][Sn]1([CH2]CCC)[O]C(=O)c2ccc(C(=O)O)cc2C(=O)[O]1
- T/C [7]: 105 % of control

Compound: Cc1ccc2c(ccc3c[n+]4c5ccccc5ccc4n32)c1
- T/C [7]: 97 % of control
- T/C [8]: 100 % of control
- T/C [9]: 101 % of control
- T/C [10]: 117 % of control

Compound: CCCN(CCC)CCCOC(=O)c1ccc(N)cc1
- T/C [11]: 99 % of control
- T/C (dose: 44.0 mg/kg/injection, schedule: Q04DX003 (ip), vehicle: saline): 86 % of control
- T/C [12]: 106 % of control
- T/C (dose: 50.0 mg/kg/injection, schedule: Q04DX003 (ip), vehicle: saline): 104 % of control
- T/C (dose: 66.0 mg/kg/injection, schedule: Q04DX003 (ip), vehicle: saline): 88 % of control
- T/C (dose: 67.0 mg/kg/injection, schedule: Q04DX003 (ip), vehicle: saline): 93 % of control
- T/C [13]: 89 % of control

Compound: CC(C)N=Cc1cc(I)cc(I)c1O.CC(C)N=Cc1cc(I)cc(I)c1O.[Co]
- T/C [1]: 88 % of control
- T/C [2]: 94 % of control
- T/C [3]: 102 % of control

Compound: CC1CC(C)(C)OC(C)(C)O1 (stereo not given)
- T/C (dose: 50.0 mg/kg/injection, schedule: Q01DX009 (ip), vehicle: acetone): 90 % of control and 95 % of control
- T/C (dose: 100.0 mg/kg/injection, schedule: Q01DX009 (ip), vehicle: acetone): 97 % of control and 94 % of control
- T/C (dose: 100.0 mg/kg/injection, schedule: Q04DX002 (ip), vehicle: saline with Tween-80): 101 % of control
- T/C (dose: 100.0 mg/kg/injection, schedule: Q04DX003 (ip), vehicle: acetone): 104 % of control and 109 % of control
- T/C (dose: 200.0 mg/kg/injection, schedule: Q01DX009 (ip), vehicle: acetone): 94 % of control and 95 % of control
- T/C (dose: 200.0 mg/kg/injection, schedule: Q04DX002 (ip), vehicle: saline with Tween-80): 93 % of control
- T/C (dose: 200.0 mg/kg/injection, schedule: Q04DX003 (ip), vehicle: acetone): 95 % of control and 104 % of control
- T/C (dose: 400.0 mg/kg/injection, schedule: Q04DX002 (ip), vehicle: saline with Tween-80): 104 % of control
- T/C (dose: 400.0 mg/kg/injection, schedule: Q04DX003 (ip), vehicle: acetone): 94 % of control and 95 % of control

Compound: c1ccc(C2C(c3ccccc3)N2CCNC2=NCCN2)cc1 (stereo not given)
- T/C (dose: 12.5 mg/kg/injection, schedule: Q01DX009 (ip), vehicle: Klucel (hydroxypropylcellulose) (HPC)): 91 % of control
- T/C (dose: 25.0 mg/kg/injection, schedule: Q01DX009 (ip), vehicle: Klucel (hydroxypropylcellulose) (HPC)): 102 % of control
- T/C (dose: 50.0 mg/kg/injection, schedule: Q01DX009 (ip), vehicle: Klucel (hydroxypropylcellulose) (HPC)): 91 % of control

Compound: O=C1c2cccc(S(=O)(=O)O)c2C(=O)c2c1cccc2S(=O)(=O)O
- T/C [14]: 109 % of control
- T/C [4]: 111 % of control
- T/C [5]: 109 % of control
- T/C [6]: 103 % of control

Compound: N=C1SC(c2ccccc2)c2ccccc21 (stereo not given)
- T/C (dose: 100.0 mg/kg/injection, schedule: Q01DX001 (ip), vehicle: Klucel (hydroxypropylcellulose) (HPC)): 98 % of control
- T/C (dose: 200.0 mg/kg/injection, schedule: Q01DX001 (ip), vehicle: Klucel (hydroxypropylcellulose) (HPC)): 93 % of control
- T/C (dose: 400.0 mg/kg/injection, schedule: Q01DX001 (ip), vehicle: Klucel (hydroxypropylcellulose) (HPC)): 95 % of control

Compound: NC(CCSCc1ccc(N(CCCl)CCCl)cc1)C(=O)O (stereo not given)
- T/C (dose: 3.0 mg/kg/injection, schedule: Q01DX Z (ip), vehicle: saline): 123 % of control
- T/C (dose: 8.0 mg/kg/injection, schedule: Q01DX Z (ip), vehicle: saline): 113 % of control
- T/C (dose: 12.0 mg/kg/injection, schedule: Q01DX Z (ip), vehicle: saline): 113 % of control
- T/C (dose: 36.0 mg/kg/injection, schedule: Q01DX Z (ip), vehicle: saline): 114 % of control
- T/C (dose: 54.0 mg/kg/injection, schedule: Q01DX Z (ip), vehicle: saline): 103 % of control and 90 % of control
- T/C (dose: 81.0 mg/kg/injection, schedule: Q01DX Z (ip), vehicle: saline): 95 % of control
- T/C [4]: 169 % of control
- T/C [5]: 182 % of control
- T/C [6]: 113 % of control

Compound: N=c1ccn(CC(Cl)COc2ccccc2)cc1 (stereo not given)
- T/C [7]: 103 % of control
- T/C [8]: 105 % of control
- T/C [9]: 105 % of control
- T/C [10]: 100 % of control
- T/C (dose: 80.0 mg/kg/injection, schedule: Q01DX001 (ip), vehicle: saline): 105 % of control
- T/C [15]: 101 % of control

Compound: N#CC1c2ccccc2C=CN1C(=O)CCBr (stereo not given)
- T/C [16]: 112 % of control
- T/C (dose: 200.0 mg/kg/injection, schedule: Q01DX009 (ip), vehicle: saline with Tween-80): 102 % of control
- T/C (dose: 400.0 mg/kg/injection, schedule: Q01DX009 (ip), vehicle: saline with Tween-80): 96 % of control

Compound: CC(C)(C)CC1=C(O)c2ccccc2C(=O)C1=O
- T/C [14]: 114 % of control
- T/C [4]: 111 % of control
- T/C [5]: 105 % of control
- T/C [6]: 100 % of control

Compound: CC(Br)C(=O)Nc1ccc(C(=O)O)c(O)c1 (stereo not given)
- T/C (dose: 25.0 mg/kg/injection, schedule: Q01DX009 (ip), vehicle: saline with Tween-80): 112 % of control
- T/C (dose: 50.0 mg/kg/injection, schedule: Q01DX009 (ip), vehicle: saline with Tween-80): 98 % of control
- T/C [16]: 100 % of control and 107 % of control

Compound: O=c1[nH]c2ccc(Cl)cc2c(=O)o1
- T/C [15]: 92 % of control
- T/C [13]: 100 % of control
- T/C (dose: 200.0 mg/kg/injection, schedule: Q01DX001 (ip), vehicle: saline): 95 % of control
- T/C (dose: 200.0 mg/kg/injection, schedule: Q01DX009 (ip), vehicle: saline): 98 % of control
- T/C (dose: 400.0 mg/kg/injection, schedule: Q01DX001 (ip), vehicle: saline): 101 % of control
- T/C (dose: 400.0 mg/kg/injection, schedule: Q01DX009 (ip), vehicle: saline): 90 % of control

Compound: C=C[C@@](C)(O)CC/C=C(/C)CCC=C(C)C
- T/C (dose: 6.0 mg/kg/injection, schedule: Q01DX009 (ip), vehicle: saline): 112 % of control
- T/C (dose: 12.0 mg/kg/injection, schedule: Q01DX009 (ip), vehicle: saline): 100 % of control
- T/C [11]: 101 % of control
- T/C [12]: 106 % of control
- T/C [1]: 97 % of control
- T/C [2]: 96 % of control
- T/C [3]: 102 % of control

Compound: COC(=O)c1ccc(N=Nc2ncc(CC(NC(C)=O)C(=O)OC)[nH]2)cc1 (stereo not given)
- T/C (dose: 100.0 mg/kg/injection, schedule: Q01DX001 (ip), vehicle: saline with Tween-80): 93 % of control
- T/C (dose: 200.0 mg/kg/injection, schedule: Q01DX001 (ip), vehicle: saline with Tween-80): 96 % of control
- T/C (dose: 400.0 mg/kg/injection, schedule: Q01DX001 (ip), vehicle: saline with Tween-80): 100 % of control

Compound: O=C(Nc1ccc2c(c1)C(Br)c1ccccc1-2)C(F)(F)F (stereo not given)
- T/C (dose: 100.0 mg/kg/injection, schedule: Q01DX009 (ip), vehicle: Klucel (hydroxypropylcellulose) (HPC)): 98 % of control
- T/C (dose: 100.0 mg/kg/injection, schedule: Q04DX003 (ip), vehicle: Klucel (hydroxypropylcellulose) (HPC)): 97 % of control
- T/C (dose: 200.0 mg/kg/injection, schedule: Q01DX009 (ip), vehicle: Klucel (hydroxypropylcellulose) (HPC)): 93 % of control
- T/C (dose: 200.0 mg/kg/injection, schedule: Q04DX003 (ip), vehicle: Klucel (hydroxypropylcellulose) (HPC)): 97 % of control
- T/C (dose: 400.0 mg/kg/injection, schedule: Q04DX003 (ip), vehicle: Klucel (hydroxypropylcellulose) (HPC)): 97 % of control

Compound: CC1CN(Cc2cccc(C#N)c2)CC(C)N1 (stereo not given)
- T/C (dose: 25.0 mg/kg/injection, schedule: Q01DX009 (ip), vehicle: water): 93 % of control
- T/C (dose: 50.0 mg/kg/injection, schedule: Q01DX009 (ip), vehicle: water): 101 % of control
- T/C (dose: 100.0 mg/kg/injection, schedule: Q01DX009 (ip), vehicle: water): 100 % of control

Compound: O=C1CCCN1
- T/C [1]: 92 % of control
- T/C [2]: 97 % of control
- T/C [3]: 92 % of control
